SMILES strings stand for the structures.

This data set can be described thus: Human HepG2 cell viability assay in 384 well format. The conditions noted are these: HepG2 cells, read-out: Inhibition. Also on record: dose 125 nL, time 70.5 hour; concentration not given beside the values. The class given is toxicity, cell-based.
In the case of `CCc1nc2c(NCC3COc4ccccc4C3)ncnc2o1` (stereo not given), the cytotoxicity at 70.5 h was -1.81%.

Regarding `CCN(Cc1noc(C)n1)C(=O)C(c1cccc(C)c1)N(C)C` (stereo not given), the cytotoxicity at 70.5 h amounted to 10.7%.

As for `CCOC(=O)[C@@H]1CN2CCNC[C@@H]2[C@H]1c1ccccc1`, the cytotoxicity at 70.5 h was -7.39%.

`O=C1CCCN1Cc1nnc(SCc2ccc3c(c2)CCC3)o1`: the cytotoxicity at 70.5 h is 9.34%.

Take `CCCSc1ncc(CN(C)CCN2CCCCC2)cn1`: the cytotoxicity at 70.5 h was -2.41%.

For the molecule `COCC1CN(S(=O)(=O)N(C)C)Cc2ncn(CC3CC3)c21` (stereo not given), the cytotoxicity at 70.5 h is 2.72%.

Regarding `COC(=O)c1ccc(CNC(=O)Cc2csc(C(C)=O)c2)cc1`, the cytotoxicity at 70.5 h was found to be 4.17%.

As to `CC(C)N(C)S(=O)(=O)N(C)Cc1cnn(Cc2ccccc2)c1`, the cytotoxicity at 70.5 h was determined as 3.45%.

Regarding `CC(C#N)CNC(=O)Nc1ccc(Br)cc1` (stereo not given), the cytotoxicity at 70.5 h turned out to be 2.54%.

With `COc1ccc(C)cc1CN(Cc1ncc(C)o1)C1CCN(C)C1` (stereo not given), the cytotoxicity at 70.5 h turned out to be 14.5%.

With `O=C(Nc1ccc(F)cc1)N1CCC2(CCC(=O)N(C3CC3)C2)CC1`, the cytotoxicity at 70.5 h was -11.6%.

On to `CC(C)Cc1noc(CNc2cccc(-c3nnnn3C)c2)n1`, for which the cytotoxicity at 70.5 h is -11%.

For the molecule `Cc1cccc2[nH]c(C3CCN(C(=O)c4c[nH]c(=O)[nH]c4=O)CC3)nc12`, the cytotoxicity at 70.5 h was -7.98%.

As to `CC(C)N(C)C(=O)c1ccc(Cl)c(NC(=O)CCN2C(=O)CCC2=O)c1`, the cytotoxicity at 70.5 h is -9.99%.

With `CCNc1cc2c(nn1)CCN(C(=O)c1c(C)noc1C)C2`, the cytotoxicity at 70.5 h is -2.94%.

Take `O=C(c1ccccc1)N1CC[C@H]2C[C@H](c3nnc(C4CC4)o3)O[C@@H]2C1`: the cytotoxicity at 70.5 h is -9.97%.

Take `O=C(NCCc1ccncc1)[C@@H]1CC[C@@H]2[C@@H](CCN2Cc2ccco2)O1`: the cytotoxicity at 70.5 h is -9.71%.

As to `CCc1ccc(CN(C)Cc2cnc(S(=O)(=O)CC)n2CCOC)cc1`, the cytotoxicity at 70.5 h was -7.48%.

For `CCN1C(=O)C(C#N)=C(C)/C(=C/C2=Cc3ccccc3OC2)C1=O`, the cytotoxicity at 70.5 h stood at 7.28%.

On to `COc1ccccc1N1CCN(C(=O)CCn2ccc(C)n2)CC1(C)C`, for which the cytotoxicity at 70.5 h is -5.62%.

With `COc1nc(C)ccc1CNC(=O)NC(C)(C)c1ncc(C)s1`, the cytotoxicity at 70.5 h is -5.61%.

For the molecule `Cc1noc(C(C)C)c1C(=O)NCCCOC(C)C`, the cytotoxicity at 70.5 h was -4.85%.

For the molecule `Cc1nn(C)c(N(C)C)c1CNCc1cccc(Cn2ccnc2)c1`, the cytotoxicity at 70.5 h is 3.64%.

With `COc1cccc(C(=O)Nc2ccc(OCCC(N)=O)cc2)c1OC`, the cytotoxicity at 70.5 h is -5.04%.

Regarding `COc1c[nH]c(C(=O)N2CCN(c3ccc(Cl)cc3)CC2)cc1=O`, the cytotoxicity at 70.5 h was determined as 20.3%.

For `CCn1c(CC2CCN(C(=O)c3cc(C(C)C)nn3C)CC2)n[nH]c1=O`, the cytotoxicity at 70.5 h came out at 2.37%.

Take `CCN(CCN(C)C)c1nc(CCN)nc2sc(C)c(C)c12`: the cytotoxicity at 70.5 h was determined as 8.66%.

In the case of `CC(=O)N1CCC(C(=O)Nc2nnc(C(F)(F)F)[nH]2)CC1`, the cytotoxicity at 70.5 h was -8.53%.

With `Cc1cc(C)c2nc(C)cc(C(=O)NC(C)c3nnn[nH]3)c2c1` (stereo not given), the cytotoxicity at 70.5 h is 6.58%.

On to `O=C(C1CC1)N1CCN(C(=O)CSc2ccccn2)[C@H]2CS(=O)(=O)C[C@H]21`, for which the cytotoxicity at 70.5 h came out at 24%.

`O=C(CC1CC1)N[C@@H]1CN(Cc2ccc(F)cc2)C[C@@H]2CCCO[C@@H]21`: the cytotoxicity at 70.5 h is -3.12%.

As for `Cc1cccc2[nH]c(C3CCN(C(=O)c4ccc[nH]4)CC3)nc12`, the cytotoxicity at 70.5 h was -6.62%.

Consider `CCCC(=O)NCCCn1ncc2c(C)cccc21`, for which the cytotoxicity at 70.5 h was -12.9%.

As for `CN(C)C(=O)C1SCCc2ccccc21` (stereo not given), the cytotoxicity at 70.5 h was -6.79%.

As to `Cc1noc(C)c1CN(C)C(=O)NCCOc1ccc(F)cc1F`, the cytotoxicity at 70.5 h was -6.66%.

Turning to `CCCn1ncc(-c2ccnc(NC3CCSC3)n2)c1C` (stereo not given), the cytotoxicity at 70.5 h is -12.7%.

Turning to `Cc1cc(C(F)(F)F)n2nc(C3CCN(S(C)(=O)=O)CC3)cc2n1`, the cytotoxicity at 70.5 h was -7.35%.

In the case of `O=C(c1cc[nH]n1)N1CCc2ccc(S(=O)(=O)N3CCOCC3)cc2C1`, the cytotoxicity at 70.5 h stood at 3.21%.

Regarding `COc1cc(N2CCC3(C2)CN(c2cccnc2)C(=O)CN3C)ncn1` (stereo not given), the cytotoxicity at 70.5 h was -4.78%.

Take `Cc1cnc(NCC(C)(C)N2CCOCC2)nc1`: the cytotoxicity at 70.5 h was -4.82%.

Take `C=CNC(=O)c1nnc2ccc(N3CCOCC3)cc2n1`: the cytotoxicity at 70.5 h is -10.8%.

On to `N#Cc1cccc(CN2C[C@@H](F)[C@@H](OCc3nc4ccccc4[nH]3)C2)c1`, for which the cytotoxicity at 70.5 h is -2.32%.

With `CCSc1ccc(C(C)NC(=O)CCS(C)(=O)=O)cc1` (stereo not given), the cytotoxicity at 70.5 h is -9.87%.

For the molecule `CN(Cc1ccc(F)cc1)C(=O)NCC1(N2CCOCC2)CCSC1` (stereo not given), the cytotoxicity at 70.5 h was 11.7%.

Consider `NC(=O)c1cc(C2CCCN(CCc3ccccn3)C2)n[nH]1` (stereo not given), for which the cytotoxicity at 70.5 h is -10.6%.

On to `CCc1ccc(CNc2cc(-c3ccoc3C)nn2CCO)o1`, for which the cytotoxicity at 70.5 h is -18.9%.

Consider `Cc1ccccc1C(=O)CN1C(=O)c2ccccc2CS1(=O)=O`, for which the cytotoxicity at 70.5 h came out at 5.68%.

Regarding `Nc1c(N2CCCC2)ncnc1N1CCOCC1`, the cytotoxicity at 70.5 h is 20.6%.

Take `O=C(Nc1cccnc1)N(Cc1ccccc1)C1CC1`: the cytotoxicity at 70.5 h was -15.3%.

For the molecule `CNC(=O)NC(=O)CN1CCc2c(Br)ccc(F)c2C1`, the cytotoxicity at 70.5 h is -0.281%.

As to `CCOc1ccc(N2CCCN=C2NC(=O)c2cccc(C)c2)cc1`, the cytotoxicity at 70.5 h is -6.22%.

With `CC(C)COCC(C)NC(=O)NCc1cccc(-n2cncn2)c1` (stereo not given), the cytotoxicity at 70.5 h is -2.93%.

With `Cc1[nH]ncc1C(=O)N1CCCC(c2cc(C(F)(F)F)[nH]n2)C1` (stereo not given), the cytotoxicity at 70.5 h is 5.58%.

For `CCc1nc(C2CCCN(c3ncccn3)C2)no1` (stereo not given), the cytotoxicity at 70.5 h was -2.54%.

For the molecule `Cc1ccccc1C1(C(=O)NCCN(C)C)CCOCC1`, the cytotoxicity at 70.5 h was -3.78%.

Regarding `Cc1ccc(NC(=O)N(C)Cc2cnn(C)c2)c(C)c1`, the cytotoxicity at 70.5 h is -10.1%.

As for `Cc1ccc(N2CCCC(N(C)c3ncnc4c3CCC4)C2)nn1` (stereo not given), the cytotoxicity at 70.5 h worked out at 2.74%.

Take `CC(=O)N1CC[C@H](c2nc3cc(F)ccc3o2)C1`: the cytotoxicity at 70.5 h was 2.32%.

For `Cc1ncc(C(=O)N2CCOC(C(=O)N3CCCCC3)C2)c(C)n1` (stereo not given), the cytotoxicity at 70.5 h was -3.05%.

Take `COc1c(CNC2CCOc3c(F)cccc32)c(C)nn1C` (stereo not given): the cytotoxicity at 70.5 h is -3.45%.

For `NC(=O)c1ccc(C(=O)N2CCCCC2Cn2cccn2)s1` (stereo not given), the cytotoxicity at 70.5 h was 19.1%.

Regarding `CCN(Cc1nc2c(cnn2C)c(=O)[nH]1)Cc1ccco1`, the cytotoxicity at 70.5 h is -13.6%.

`c1cnc(N2CCCn3c(nnc3Cn3cccn3)C2)nc1`: the cytotoxicity at 70.5 h was determined as 1.91%.

As for `CCS(=O)(=O)N1CCC(c2nnc(C3CC3)o2)CC1`, the cytotoxicity at 70.5 h worked out at 3.63%.

Take `CC(=O)N1CCN(c2cc(C)ncn2)CC(CO)C1` (stereo not given): the cytotoxicity at 70.5 h was -3.4%.

`CC(C)Oc1ccc(CN)c(C(F)(F)F)c1`: the cytotoxicity at 70.5 h is -7.67%.

In the case of `COc1ccc(Cl)cc1S(=O)(=O)N(C)CC(=O)Nc1cccnc1`, the cytotoxicity at 70.5 h is -5.02%.

In the case of `Cc1cnn(CCNc2cnc3ccccc3n2)c1`, the cytotoxicity at 70.5 h is -1.2%.

Regarding `Cc1noc(CCCC(=O)N2CCCCC2c2nccs2)n1` (stereo not given), the cytotoxicity at 70.5 h is 32%.

On to `Cc1cnc2n(c1=O)CC(C(=O)Nc1ccon1)CS2` (stereo not given), for which the cytotoxicity at 70.5 h was -13.7%.

In the case of `COC(=O)c1cccn1C1CCN(C(=O)c2cc(F)ccc2F)CC1`, the cytotoxicity at 70.5 h is -1.51%.

Regarding `Cc1cc(CC(C)NC2CCN(CC(C)C)CC2)[nH]n1` (stereo not given), the cytotoxicity at 70.5 h is -10.6%.

`CN(C)CCNc1c(-c2ccccc2)c(=O)c1=O`: the cytotoxicity at 70.5 h is -1.53%.

For `COc1ccc(C)cc1NC(=O)CNc1ccn(CC(N)=O)n1`, the cytotoxicity at 70.5 h is -9.21%.

Take `CSc1ncc(CN2CC(Oc3c(C)cccc3C)C2)cn1`: the cytotoxicity at 70.5 h is -2.81%.

`c1ccc(-c2nc(CN3CCCC(Cn4cncn4)C3)co2)cc1` (stereo not given): the cytotoxicity at 70.5 h was determined as 17.2%.

For `O=C(CS(=O)(=O)Cc1ccc(F)cc1)NCc1ccccc1F`, the cytotoxicity at 70.5 h was -8.79%.

In the case of `O=S(=O)(CCN1CCN(c2ccccc2O)CC1)c1ccc(Cl)cc1`, the cytotoxicity at 70.5 h was -14.3%.

For `CN(C)CC1CSCCCN1S(=O)(=O)Cc1ccc(C(F)(F)F)cc1` (stereo not given), the cytotoxicity at 70.5 h was -0.0412%.

For `Cc1ccc2c(c1)C(NCc1nccn1Cc1ccccc1)CCCO2` (stereo not given), the cytotoxicity at 70.5 h is -13.4%.

In the case of `O=C(NCC1CCS(=O)(=O)C1)c1ccc(NC(=O)c2ccco2)cc1` (stereo not given), the cytotoxicity at 70.5 h stood at 26.8%.

With `CN(C)Cc1cc(CC2(NCc3ccc(C#N)cc3)COC2)no1`, the cytotoxicity at 70.5 h was -6.01%.

For `NC(=O)C1CCCN1Cc1nccn1CC(F)(F)F` (stereo not given), the cytotoxicity at 70.5 h turned out to be 10.6%.

For `CCOc1ccc(CNC(=O)N(C)Cc2ncnn2C)cc1C`, the cytotoxicity at 70.5 h turned out to be 1.14%.

For the molecule `c1cc(CNc2nnc(Cc3ccsc3)o2)cs1`, the cytotoxicity at 70.5 h was -8.44%.

Turning to `Cc1nc(C)n(CC2CCCN2CCCc2nc3ccccc3o2)n1` (stereo not given), the cytotoxicity at 70.5 h is -5.85%.

With `CN(C)c1ncc(-c2ccc(C(N)=O)cc2)c(C2CCNC2)n1` (stereo not given), the cytotoxicity at 70.5 h is -2.25%.

Consider `Cc1cnn(CCNCc2c(C)nn(-c3ccccc3)c2C)c1`, for which the cytotoxicity at 70.5 h came to 2.45%.

Turning to `Cn1c(NCCC(=O)N2CCCC2)c(C#N)c(=O)n(C)c1=O`, the cytotoxicity at 70.5 h worked out at 3.58%.

On to `Cc1nn(C)cc1-c1cc(C(=O)N2CCc3ncc(Cl)cc3C2)on1`, for which the cytotoxicity at 70.5 h is -2.35%.

As to `Cc1cc(CN2CCN(CC(O)c3ccc4c(c3)OCO4)CC2)no1` (stereo not given), the cytotoxicity at 70.5 h is -10.8%.

On to `Cc1ccc(F)cc1S(=O)(=O)N(C)CC(N)=O`, for which the cytotoxicity at 70.5 h was -11.9%.

Turning to `CS(=O)(=O)NCc1nnc2n1CCN(CC1CC1)C2`, the cytotoxicity at 70.5 h was -6.05%.

In the case of `COC(=O)NCCC(=O)NC(C)Cc1ccccc1Br` (stereo not given), the cytotoxicity at 70.5 h was -7.4%.

With `Cc1ccc(C(NC(=O)CCNC(=O)c2ccoc2)C(F)(F)F)cc1` (stereo not given), the cytotoxicity at 70.5 h was -0.123%.

Turning to `O=S(=O)(c1ccc(F)cc1)N1CCN(CCCn2ccnc2)CC1`, the cytotoxicity at 70.5 h was -1.51%.

`CS(=O)(=O)N1CCCCCC1c1cc(-c2ccc(F)cc2)no1` (stereo not given): the cytotoxicity at 70.5 h was 5.67%.

In the case of `CC1CN(CC(=O)NCCc2ccccc2)CCN1c1nccs1` (stereo not given), the cytotoxicity at 70.5 h is -5.41%.

Regarding `CSCc1cc(C(=O)NC2(C#N)CCSC2)ccc1F` (stereo not given), the cytotoxicity at 70.5 h was -8.71%.

In the case of `Cc1noc(C2CCCN(CC(=O)N3CCc4ccccc4C3)C2)n1` (stereo not given), the cytotoxicity at 70.5 h was -1.69%.

For the origin of these results see ChEMBL document CHEMBL3507680, “University of Dundee, Gates Library screen for HepG2 cell viability”.
